For orientation: IC50 means the point on the concentration scale where inhibition reaches its midpoint. Lower therefore signals greater potency in that assay.

The target in one assay is T1, human CYP4A11 (Homo sapiens, UniProt Q02928).
T1 construct: host or cells: Escherichia coli (membrane fraction)
T1 sequence (Q02928 5-519): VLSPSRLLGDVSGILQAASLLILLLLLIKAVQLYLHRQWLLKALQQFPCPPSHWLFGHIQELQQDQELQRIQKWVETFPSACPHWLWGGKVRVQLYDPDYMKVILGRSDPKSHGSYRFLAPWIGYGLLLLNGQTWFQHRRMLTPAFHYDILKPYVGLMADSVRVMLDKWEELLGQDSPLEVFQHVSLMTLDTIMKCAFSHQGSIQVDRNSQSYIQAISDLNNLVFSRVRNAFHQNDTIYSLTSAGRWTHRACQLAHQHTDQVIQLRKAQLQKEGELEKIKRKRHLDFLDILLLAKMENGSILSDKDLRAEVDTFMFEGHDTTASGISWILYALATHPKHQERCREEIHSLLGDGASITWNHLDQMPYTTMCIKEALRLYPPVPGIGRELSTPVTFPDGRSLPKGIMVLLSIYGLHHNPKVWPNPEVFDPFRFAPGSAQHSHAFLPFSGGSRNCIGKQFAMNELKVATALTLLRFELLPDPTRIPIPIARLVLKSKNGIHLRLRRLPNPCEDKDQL
Put plainly: CYP4A11 inhibition test (Test Example 1). Particulars: Escherichia coli membrane fraction expressing human CYP4A11, 60 μM luciferine derivative, room temperature 60 minutes, luminescence. Type of assay: biochemical. Put shortly: (§1)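 Luminescent read-out after adding luciferin detection reagent to a 60 min room-temperature reaction of compound with human CYP-expressing E. coli membrane fraction (100 μg/mL). Substrate and buffer differ: 60 μM luciferin derivative in Tris pH 7.5 with NADPH regeneration for CYP4A11; 2.5 μM in KPO4 pH 7.4 with 1 mM NADPH for CYP4F2.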

Another assay addresses T2, human CYP4F2 (Homo sapiens, UniProt P78329).
T2 construct: host or cells: Escherichia coli (membrane fraction)
T2 sequence (P78329 5-520): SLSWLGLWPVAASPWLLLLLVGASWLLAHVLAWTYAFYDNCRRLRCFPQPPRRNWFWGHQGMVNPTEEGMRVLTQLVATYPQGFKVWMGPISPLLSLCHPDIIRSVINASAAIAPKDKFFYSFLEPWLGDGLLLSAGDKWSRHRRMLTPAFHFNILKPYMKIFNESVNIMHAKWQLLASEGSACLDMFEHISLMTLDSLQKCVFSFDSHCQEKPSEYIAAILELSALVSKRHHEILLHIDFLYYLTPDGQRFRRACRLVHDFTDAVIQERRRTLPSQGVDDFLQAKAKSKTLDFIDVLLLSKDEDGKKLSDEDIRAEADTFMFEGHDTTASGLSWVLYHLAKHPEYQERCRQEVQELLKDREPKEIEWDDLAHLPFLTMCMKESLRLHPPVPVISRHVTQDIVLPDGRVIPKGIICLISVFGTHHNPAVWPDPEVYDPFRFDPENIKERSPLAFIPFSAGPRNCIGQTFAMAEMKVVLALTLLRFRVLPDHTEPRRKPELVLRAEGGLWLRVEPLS
Put plainly: CYP4F2 inhibition test (Test Example 1). Format: biochemical. Particulars: Escherichia coli membrane fraction expressing human CYP4F2, 2.5 μM luciferine derivative, room temperature 60 minutes, luminescence. Put shortly:
as §1

Some results are limits rather than exact numbers.

As for `COc1ccc2ccc(COc3ccc(-c4ccn[nH]4)nc3)cc2n1` [Example 25-16], the IC50 was 2200 nM at human CYP4A11 and 3.2 nM on human CYP4F2.
As for `CS(=O)(=O)c1ccc(COc2ccc(-c3ccn[nH]3)nc2)cc1` [Example 25-18], the IC50 against human CYP4A11 worked out at 6000 nM; at human CYP4F2 it was 96 nM.
On the same counts, the results for `FC(F)(F)Sc1cccc(COc2ccc(-c3ccn[nH]3)nc2)c1` [Example 25-19] are 100 nM and 83 nM.
With `FC(F)(F)c1ccc(COc2ccc(-c3ccn[nH]3)nc2)cc1` [Example 25-20], the IC50 against human CYP4A11 came out at 1200 nM; against human CYP4F2, 14 nM.
On the same counts, the results for `Cc1ccc(S(=O)(=O)c2ccc(COc3ccc(-c4ccn[nH]4)nc3)cc2)cc1` [Example 25-21] are 2400 nM and 40 nM.
As to `FC(F)(F)Oc1ccc(COc2ccc(-c3ccn[nH]3)nc2)cc1` [Example 25-22], the half-maximal inhibitory concentration (IC50) amounted to 1500 nM against human CYP4A11 and 9.2 nM on human CYP4F2.
On the same counts, the results for `FC(F)(F)Oc1cccc(COc2ccc(-c3ccn[nH]3)nc2)c1` [Example 25-23] are 160 nM and 52 nM.
In the same order, the values of `CC1CCCC(C)N1C(=O)c1cccc(COc2ccc(-c3ccn[nH]3)nc2)c1` (centres unmarked) [Example 25-24] are 2500 nM and 350 nM.
In the same order, the values of `C(=C\c1ccc(COc2ccc(-c3ccn[nH]3)nc2)cc1)/c1ccccc1` [Example 25-28] are over 50000 nM and 5.1 nM.
For `FC(F)(F)c1cccc(COc2ccc(-c3ccn[nH]3)nc2)c1` [Example 25-29], the IC50 against human CYP4A11 turned out to be 67 nM; against human CYP4F2, 88 nM.
For the compound `CC(=O)N1CCC(COc2ccc(-c3cn[nH]c3)nc2)CC1` [Example 39-1, 1-(4-{[6-(1H-Pyrazol-4-yl)pyridin-3-yl]oxymethyl}piperidin-1-yl)ethanone], the 50% inhibitory concentration (IC50) against human CYP4A11 was determined as 220 nM; at human CYP4F2 it was 240 nM.
Regarding `CS(=O)(=O)c1ccccc1CCOc1ccc(-c2cn[nH]c2)nc1` [Example 39-2], the values for the half-inhibitory concentration (IC50) against human CYP4A11 and on human CYP4F2 were 95 nM and 320 nM, respectively.
On the same counts, the results for `CS(=O)(=O)c1cccc(COc2ccc(-c3[nH]ncc3C(F)(F)F)nc2)c1` [Example 40-1, 5-[(3-Methylsulfonylphenyl)methoxy]-2-[4-(trifluoromethyl)-1H-pyrazol-5-yl]pyridine] are 12000 nM and 12000 nM.
In the same order, the values of `CS(=O)(=O)c1cccc(COc2ccc(-c3cn[nH]c3)nc2)c1` [Example 41-1, 5-[(3-Methylsulfonylphenyl)methoxy]-2-(1H-pyrazol-4-yl)pyridine] are 120 nM and 470 nM.
In the same order, the values of `Cc1n[nH]cc1-c1ccc(OCc2cccc(S(C)(=O)=O)c2)cn1` [Example 41-2] are 1100 nM and 4300 nM.
As to `CS(=O)(=O)c1cccc(COc2ccc(-c3cnsc3)nc2)c1` [Example 41-3], the IC50 was determined as 520 nM against human CYP4A11 and 1600 nM against human CYP4F2.
In the same order, the values of `CC(=O)N1CCC(COc2ccc(-c3ccns3)nc2)CC1` [Example 42-1, 1-(4-{[6-(1,2-Thiazol-5-yl)pyridin-3-yl]oxymethyl}piperidin-1-yl)ethanone] are 110 nM and 44 nM.
In the case of `CS(=O)(=O)c1cccc(COc2ccc(-c3ccns3)nc2)c1` [Example 42-2], the values for the IC50 against human CYP4A11 and on human CYP4F2 were 65 nM and 140 nM, respectively.
On the same counts, the results for `CC(=O)N1CCC(COc2ccc(-c3c[nH]nn3)nc2)CC1` [Example 43-1, 1-(4-{[6-(1H-Triazol-4-yl)pyridin-3-yl]oxymethyl}piperidin-1-yl)ethanone] are 4800 nM and 3100 nM.
In the same order, the values of `CC(=O)N1CCC(COc2ccc(-c3ncn[nH]3)nc2)CC1` [Example 43-2] are 1300 nM and 250 nM.
On to `O=S1(=O)CCC(COc2ccc(-c3cn[nH]c3)nc2)CC1` [Example 43-3], for which the results for the IC50 at human CYP4A11 and against human CYP4F2 were 600 nM and 3800 nM, respectively.
In the same order, the values of `O=S1(=O)CCCC(COc2ccc(-c3cn[nH]c3)nc2)C1` (centres unmarked) [Example 43-4] are 390 nM and 5400 nM.
In the same order, the values of `O=S1(=O)CCC(CCOc2ccc(-c3cn[nH]c3)nc2)CC1` [Example 43-5] are 290 nM and 3400 nM.
As to `O=S1(=O)CCCC(CCOc2ccc(-c3cn[nH]c3)nc2)C1` (centres unmarked) [Example 43-6], the figures for the half-maximal inhibitory concentration (IC50) against human CYP4A11 and against human CYP4F2 were 420 nM and 3500 nM, respectively.
Take `CS(=O)(=O)c1cccc(COc2ccc(-c3c[nH]nn3)nc2)c1` [Example 44-1, 5-[(3-Methylsulfonylphenyl)methoxy]-2-(1H-triazol-4-yl)pyridine]: the 50% inhibitory concentration (IC50) at human CYP4A11 turned out to be 2400 nM; against human CYP4F2, 9000 nM.
On to `CC(=O)N1CCC(COc2ccc(-n3ccnn3)nc2)CC1` [Example 45-1, 1-(4-{[6-(Triazol-1-yl)pyridin-3-yl]oxymethyl}piperidin-1-yl)ethanone], for which the IC50 against human CYP4A11 was 1300 nM; against human CYP4F2, 370 nM.
In the same order, the values of `CS(=O)(=O)c1cccc(COc2ccc(-n3ccnn3)nc2)c1` [Example 45-2] are 640 nM and 3100 nM.
On the same counts, the results for `CC(=O)N1CCC(COc2ccc(-n3cncn3)nc2)CC1` [Example 45-3] are 55 nM and 26 nM.
In the same order, the values of `CS(=O)(=O)c1cccc(COc2ccc(-n3cncn3)nc2)c1` [Example 45-4] are 31 nM and 220 nM.
Turning to `CC(=O)N1CCC(COc2ccc(-n3cnnc3)nc2)CC1` [Example 45-5], the results for the half-inhibitory concentration (IC50) against human CYP4A11 and at human CYP4F2 were 11000 nM and 1600 nM, respectively.
For `CS(=O)(=O)c1cccc(COc2ccc(-n3cnnc3)nc2)c1` [Example 45-6], the results for the IC50 on human CYP4A11 and on human CYP4F2 were 5700 nM and 16000 nM, respectively.
In the same order, the values of `CS(=O)(=O)c1cccc(COc2ccc(-c3[nH]ncc3C(F)F)nc2)c1` [Example 46-1, 2-[4-(Difluoromethyl)-1H-pyrazol-5-yl]-5-[(3-methylsulfonylphenyl)methoxy]pyridine] are 3900 nM and 7500 nM.
`CS(=O)(=O)c1cccc(COc2ccc(-c3ncn[nH]3)nc2)c1` [Example 46-2]: the half-maximal inhibitory concentration (IC50) came to 340 nM at human CYP4A11 and 1500 nM against human CYP4F2.
As to `CS(=O)(=O)N1CCC[C@H](COc2ccc(-c3cn[nH]c3)nc2)C1` [Example 46-3], the 50% inhibitory concentration (IC50) against human CYP4A11 was 33 nM; on human CYP4F2, 2000 nM.
On the same counts, the results for `CS(=O)(=O)N1CCC[C@@H](COc2ccc(-c3cn[nH]c3)nc2)C1` [Example 46-4] are 39 nM and 1400 nM.
For `CS(=O)(=O)c1cccc(COc2ccc(-c3[nH]ncc3C(=O)NC3CC3)nc2)c1` [Example 47-1, N-Cyclopropyl-5-{5-[(3-methylsulfonylphenyl)methoxy]pyridin-2-yl}-1H-pyrazole-4-carboxamide], the IC50 against human CYP4A11 is over 50000 nM; on human CYP4F2, 15000 nM.
On the same counts, the results for `CS(=O)(=O)c1cccc(COc2ccc(-c3[nH]ncc3C(N)=O)nc2)c1` [Example 48-1, 5-{5-[(3-Methylsulfonylphenyl)methoxy]pyridin-2-yl}-1H-pyrazole-4-carboxamide] are 20000 nM and 33000 nM.

Values taken from US20210040062A1, “AZOLE-SUBSTITUTED PYRIDINE COMPOUND” (TAISHO PHARMACEUTICAL CO., LTD., priority 2016, published 2021).
